Results as given in patent US10017514B2, “6,7-dihydropyrazolo[1,5-α]pyrazin-4(5H)-one compounds and their use as negative allosteric modulators of mGluR2 receptors” (Janssen Pharmaceutica NV, priority 2014, dated 2018).

Tests used:
human mGlu2 receptor = target: T1, human mGlu2 receptor (Homo sapiens, UniProt Q14416); assay: [35S]GTPγS binding assay, mGluR2 negative allosteric modulation; assay type: biochemical; conditions: for Emax: maximal % inhibition relative to the control glutamate response (EC80 glutamate), read-out: GTPγS-hmGluR2 anGT Emax; for IC50: membranes from CHO cells transfected with human mGlu2 receptor, glutamate ~EC80 (60 μM), read-out: GTPγS-hmGluR2 anGT pIC50 (converted)
T1 construct: expressed in transfected cells; host or cells: CHO cells (membrane preparation)
Method: Total reaction volume was 200 μl. […] Membrane-bound radioactivity was counted in a Topcount.

rats = assay: Reversal of the effect of the mGluR2 PAM JNJ-42153605-induced inhibition of scopolamine-induced hyperlocomotion; assay type: in vivo, rat; conditions: for ED50: Rattus norvegicus, rats, PO, 60 min pretreatment, JNJ-42153605 20 mg/kg i.v. + scopolamine 0.16 mg/kg i.v., criterion total distance >1500 cm in 30 min, read-out: SCOP JNJ-42153605 ED50
Method: Motor activity was measured in microprocessor-based motor activity arenas (closed gray PVC cylinders with a height of 39 cm and a diameter of 31 cm). Each arena was placed on an infrared LED (8×8 LEDs) lit box (white PVC squared box; 40×40 cm^2; height 12.5 cm. An infrared-sensitive tube camera and a white light source were mounted to the ceiling above the observation chamber to track the animal. […] Noldus, Wageningen, The Netherlands). The intensity of the light within the activity cages (measured in the centre at the level of the floor) ranged between 4 and 8 LUX. The rats were pretreated with test compound or vehicle at 60 min before the start of the activity recordings and placed into individual cages. […] WO2010/130424; Cid et al. J. Med.

[1] = historical series of solvent-pretreated control rats, first 30 min

T1 sequence (Q14416 19-872): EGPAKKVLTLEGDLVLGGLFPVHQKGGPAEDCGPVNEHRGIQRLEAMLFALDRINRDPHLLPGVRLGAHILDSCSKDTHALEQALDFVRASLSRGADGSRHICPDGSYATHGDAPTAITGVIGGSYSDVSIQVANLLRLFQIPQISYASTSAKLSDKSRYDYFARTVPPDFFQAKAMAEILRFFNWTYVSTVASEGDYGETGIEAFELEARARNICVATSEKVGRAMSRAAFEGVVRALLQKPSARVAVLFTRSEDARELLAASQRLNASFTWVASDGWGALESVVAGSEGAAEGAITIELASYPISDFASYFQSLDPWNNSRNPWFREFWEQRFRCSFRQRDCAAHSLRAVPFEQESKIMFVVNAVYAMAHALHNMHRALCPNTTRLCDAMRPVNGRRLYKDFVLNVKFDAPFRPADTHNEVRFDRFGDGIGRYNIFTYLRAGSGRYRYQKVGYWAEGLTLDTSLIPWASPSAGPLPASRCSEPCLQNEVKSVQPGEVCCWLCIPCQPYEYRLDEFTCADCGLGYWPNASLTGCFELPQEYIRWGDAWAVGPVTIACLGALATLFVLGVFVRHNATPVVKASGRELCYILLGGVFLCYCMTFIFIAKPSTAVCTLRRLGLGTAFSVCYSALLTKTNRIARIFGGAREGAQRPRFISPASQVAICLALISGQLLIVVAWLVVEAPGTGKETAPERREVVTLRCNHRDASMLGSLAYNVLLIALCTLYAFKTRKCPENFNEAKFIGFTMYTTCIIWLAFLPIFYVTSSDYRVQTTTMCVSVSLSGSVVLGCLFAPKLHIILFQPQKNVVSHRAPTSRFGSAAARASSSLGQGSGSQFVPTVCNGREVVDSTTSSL

Emax (human mGlu2 receptor) [%]	IC50 (human mGlu2 receptor) [nM]	melting point [°C]	Compound	ED50 (rats) [mg/kg]	Median total distance travelled (rats; [1]) [cm]	rats travelling >1500 cm (rats; [1]) [%]	rats travelling >4400 cm (rats; [1]) [%]
112	6.17	173.7	CNc1ccc(-c2cc(-c3cnn4c3C(=O)N(c3ccc(C(F)(F)F)cc3)C[C@@H]4C)no2)cn1 [Co. No. 26, (7S)-7-methyl-3-[5-[6-(methylamino)-3-pyridyl]isoxazol-3-yl]-5-[4-(trifluoromethyl)phenyl]-6,7-dihydropyrazolo[1,5-a]pyrazin-4-one]				
107	14.8	155.07	Cc1cc(N2C[C@H](C)n3ncc(-c4cc(-c5ccccn5)on4)c3C2=O)ccc1C(F)(F)F [Co. No. 14, (7S)-7-methyl-5-[3-methyl-4-(trifluoromethyl)phenyl]-3-[5-(2-pyridyl)isoxazol-3-yl]-6,7-dihydropyrazolo[1,5-a]pyrazin-4-one]				
108	6.17	168.58	Cc1cncc(-c2cc(-c3cnn4c3C(=O)N(c3ccc(C(F)(F)F)c(Cl)c3)C[C@@H]4C)no2)c1 [Co. No. 12, (7S)-5-[3-chloro-4-(trifluoromethyl)phenyl]-7-methyl-3-[5-(5-methyl-3-pyridyl)isoxazol-3-yl]-6,7-dihydropyrazolo[1,5-a]pyrazin-4-one]	> 0.63			
106	17.4	181.57	Cc1cc(N2C[C@H](C)n3ncc(-c4cc(-c5cnccn5)on4)c3C2=O)ccc1C(F)(F)F [Co. No. 17, (7S)-7-methyl-5-[3-methyl-4-(trifluoromethyl)phenyl]-3-(5-pyrazin-2-ylisoxazol-3-yl)-6,7-dihydropyrazolo[1,5-a]pyrazin-4-one]				
106	27.5	208.95	Cc1cncc(-c2cc(-c3cnn4c3C(=O)N(c3ccc(C(F)(F)F)cc3)C[C@@H]4C)no2)c1 [Co. No. 7, (7S)-7-methyl-3-[5-(5-methyl-3-pyridyl)isoxazol-3-yl]-5-[4-(trifluoromethyl)phenyl]-6,7-dihydropyrazolo[1,5-a]pyrazin-4-one]				
103	9.12	194.25	C[C@H]1CN(c2ccc(C(F)(F)F)cc2)C(=O)c2c(-c3cc(-c4ccccc4)on3)cnn21 [Co. No. 3, (7S)-7-methyl-3-(5-phenylisoxazol-3-yl)-5-[4-(trifluoromethyl)phenyl]-6,7-dihydropyrazolo[1,5-a]pyrazin-4-one]				
110	25.1	208.39	CNc1cc(-c2cc(-c3cnn4c3C(=O)N(c3ccc(C(F)(F)F)cc3)C[C@@H]4C)no2)ccn1 [Co. No. 25, (7S)-7-methyl-3-[5-[2-(methylamino)-4-pyridyl]isoxazol-3-yl]-5-[4-(trifluoromethyl)phenyl]-6,7-dihydropyrazolo[1,5-a]pyrazin-4-one]				
106	6.03	189.85	C[C@H]1CN(c2ccc(C(F)(F)F)cc2)C(=O)c2c(-c3cc(-c4cccnc4N)on3)cnn21 [Co. No. 24, (7S)-3-[5-(2-amino-3-pyridyl)isoxazol-3-yl]-7-methyl-5-[4-(trifluoromethyl)phenyl]-6,7-dihydropyrazolo[1,5-a]pyrazin-4-one]				
105	20.9	168.93	Cc1cc(N2C[C@H](C)n3ncc(-c4cc(-c5cncc(F)c5)on4)c3C2=O)ccc1C(F)(F)F [Co. No. 23, (7S)-3-[5-(5-fluoro-3-pyridyl)isoxazol-3-yl]-7-methyl-5-[3-methyl-4-(trifluoromethyl)phenyl]-6,7-dihydropyrazolo[1,5-a]pyrazin-4-one]				
110	21.4	172.9	Cc1cncc(-c2cc(-c3cnn4c3C(=O)N(c3ccc(C(F)(F)F)c(C)c3)C[C@@H]4C)no2)c1 [Co. No. 16, (7S)-7-methyl-3-[5-(5-methyl-3-pyridyl)isoxazol-3-yl]-5-[3-methyl-4-(trifluoromethyl)phenyl]-6,7-dihydropyrazolo[1,5-a]pyrazin-4-one]				
103	6.61	197.03	C[C@H]1CN(c2ccc(C(F)(F)F)c(Cl)c2)C(=O)c2c(-c3cc(-c4cncc(F)c4)on3)cnn21 [Co. No. 21, (7S)-5-[3-chloro-4-(trifluoromethyl)phenyl]-3-[5-(5-fluoro-3-pyridyl)isoxazol-3-yl]-7-methyl-6,7-dihydropyrazolo[1,5-a]pyrazin-4-one]	> 0.63			
106	6.03	205.91	C[C@H]1CN(c2ccc(C(F)(F)F)c(Cl)c2)C(=O)c2c(-c3cc(-c4cnccn4)on3)cnn21 [Co. No. 13, (7S)-5-[3-chloro-4-(trifluoromethyl)phenyl]-7-methyl-3-(5-pyrazin-2-ylisoxazol-3-yl)-6,7-dihydropyrazolo[1,5-a]pyrazin-4-one]				
103	69.2	165.04	Cc1cc(-c2cnn3c2C(=O)N(c2ccc(C(F)(F)F)cc2)C[C@@H]3C)no1 [Co. No. 1, (7S)-7-Methyl-3-(5-methylisoxazol-3-yl)-5-[4-(trifluoromethyl)phenyl]-6,7-dihydropyrazolo[1,5-a]pyrazin-4-one]				
			CN1[C@@H]2C[C@@H](OC(=O)[C@H](CO)c3ccccc3)C[C@H]1[C@@H]1O[C@@H]12 [Scopolamine, scopolamine, reference compound]		7246	100	95.8
113	1.15		C[C@H]1CN(c2ccc(C(F)(F)F)c(Cl)c2)C(=O)c2c(-c3cc(-c4ccc(N)nc4)on3)cnn21 [Co. No. 9, (7S)-3-[5-(6-amino-3-pyridyl)isoxazol-3-yl]-5-[3-chloro-4-(trifluoromethyl)phenyl]-7-methyl-6,7-dihydropyrazolo[1,5-a]pyrazin-4-one]				
110	16.2		Cc1cc(-c2cnn3c2C(=O)N(c2ccc(C(F)(F)F)c(Cl)c2)C[C@@H]3C)no1 [Co. No. 8, (7S)-5-[3-chloro-4-(trifluoromethyl)phenyl]-7-methyl-3-(5-methylisoxazol-3-yl)-6,7-dihydropyrazolo[1,5-a]pyrazin-4-one]				
106	40.7	193.65	C[C@H]1CN(c2ccc(C(F)(F)F)cc2)C(=O)c2c(-c3cc(-c4ccccn4)on3)cnn21 [Co. No. 4, (7S)-7-methyl-3-[5-(2-pyridyl)isoxazol-3-yl]-5-[4-(trifluoromethyl)phenyl]-6,7-dihydropyrazolo[1,5-a]pyrazin-4-one]				
101	18.6	176.27	C[C@H]1CN(c2ccc(C(F)(F)F)cc2)C(=O)c2c(-c3cc(-c4cncc(F)c4)on3)cnn21 [Co. No. 19, (7S)-3-[5-(5-fluoro-3-pyridyl)isoxazol-3-yl]-7-methyl-5-[4-(trifluoromethyl)phenyl]-6,7-dihydropyrazolo[1,5-a]pyrazin-4-one]				
114	40.7	118.52	Cc1cc(-c2cc(-c3cnn4c3C(=O)N(c3ccc(C(F)(F)F)cc3)C[C@@H]4C)no2)ccn1 [Co. No. 6, (7S)-7-methyl-3-[5-(2-methyl-4-pyridyl)isoxazol-3-yl]-5-[4-(trifluoromethyl)phenyl]-6,7-dihydropyrazolo[1,5-a]pyrazin-4-one]				
